Assay results reported in US20070054899A1 (priority 2003, published 2007).
Read-outs that look alike come from different tables or passages of the source.

Columns and labels:
[1] = target: T1, aromatase (microsomes from the human placenta) (Homo sapiens, UniProt P11511); assay: Aromatase inhibition in vitro, tritiated water method, human placenta microsomes; format: biochemical
T1 construct: using microsomes from the human placenta as source of the enzyme; from tissue; host or cells: human placenta microsomes
T1 sequence (P11511 1-503): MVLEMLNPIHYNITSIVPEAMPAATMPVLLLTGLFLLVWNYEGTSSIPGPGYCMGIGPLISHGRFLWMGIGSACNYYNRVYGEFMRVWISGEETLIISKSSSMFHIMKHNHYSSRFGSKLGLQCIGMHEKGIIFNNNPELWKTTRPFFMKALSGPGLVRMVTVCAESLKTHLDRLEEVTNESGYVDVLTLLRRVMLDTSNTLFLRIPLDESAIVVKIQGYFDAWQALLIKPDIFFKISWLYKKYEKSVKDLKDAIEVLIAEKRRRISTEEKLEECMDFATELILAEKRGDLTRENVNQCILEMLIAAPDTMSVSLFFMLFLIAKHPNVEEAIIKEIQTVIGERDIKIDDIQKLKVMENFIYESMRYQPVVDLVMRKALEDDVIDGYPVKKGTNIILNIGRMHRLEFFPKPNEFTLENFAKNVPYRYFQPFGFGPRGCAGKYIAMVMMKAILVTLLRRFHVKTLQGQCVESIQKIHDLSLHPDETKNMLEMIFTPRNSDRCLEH

[2] = tested on: uterine hypertrophy induced by androstenedione; assay: Activity in vivo: inhibition of uterine hypertrophy induced by androstenedione; design: species or system rat (Sprague-Dawley); details: Rattus norvegicus, 96 h, immature female rats, androstenedione 30 mg/kg for 4 days, read-out: % inhibition to doses (μg/Kg); for inhibition in vivo at 0.001 mg/kg: dose 1 μg/Kg; for inhibition in vivo at 0.01 mg/kg: dose 10 μg/Kg; for inhibition in vivo at 0.1 mg/kg: dose 100 μg/Kg; for inhibition in vivo at 1 mg/kg: dose 1000 μg/Kg
Procedure: The activity in vivo of aromatase inhibition by compounds of formula (I) according to the invention has been tested according to the model established by Bharnagar et al. (1990).
In general, immature female rats of the Sprague-Dawley line of a weight ranging from 40 to 50 g have been treated with a dose of androstenedione at 30 mg/kg for 4 days, in the absence or in the presence of doses of various compounds of formula (I).
Four hours after administration of an aromatase inhibitor, the rats were sacrificed. Their uteruses were removed, cleared of adhering fat and conjunctive tissue, next the uteruses were weighed (wet weight). The dry weight of the uteruses was determined the following day after a step of drying for one night at 80° C.

aromatase (e) = aromatase (e) (UniProt O46512); format: biochemical; details: value marked (e); read-out: Activity In vitro IC50(nM), (e)
aromatase (e), sequence (O46512 whole entry): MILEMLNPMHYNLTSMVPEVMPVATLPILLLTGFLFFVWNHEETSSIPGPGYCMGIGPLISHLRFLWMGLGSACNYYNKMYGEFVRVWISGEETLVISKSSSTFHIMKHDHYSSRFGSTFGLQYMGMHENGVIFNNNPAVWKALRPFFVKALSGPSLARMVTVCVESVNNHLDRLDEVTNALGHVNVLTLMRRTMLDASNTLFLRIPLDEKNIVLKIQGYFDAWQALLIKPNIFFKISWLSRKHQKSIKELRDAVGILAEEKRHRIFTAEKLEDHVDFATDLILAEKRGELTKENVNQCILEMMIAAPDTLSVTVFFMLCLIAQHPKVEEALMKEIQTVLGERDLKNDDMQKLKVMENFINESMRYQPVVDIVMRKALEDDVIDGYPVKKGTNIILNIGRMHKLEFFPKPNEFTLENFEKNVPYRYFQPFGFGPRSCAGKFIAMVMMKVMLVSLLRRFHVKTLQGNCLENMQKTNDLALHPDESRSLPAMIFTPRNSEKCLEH

[3] = value without (h)/(e) mark, read-out: Activity In vitro IC50
[4] = value marked (h), read-out: Activity In vitro IC50(nM), (h)

## Cn1c(=O)[se]c2cc(C(c3ccc([N+](=O)[O-])cc3)n3cncn3)ccc21 (stereo not shown) [PCH304, 3-Methyl-6-[(4-nitrophenyl)(1H-1,2,4-triazol-1-yl)methyl]-1,3-benzoselenazol-2(3H)-one]
other
  melting point: 190 to 195 °C
[1]; [3]
  IC50: 3.64 nM

## CCn1c(=O)[se]c2cc(C(c3ccc(C#N)cc3)n3cncn3)ccc21 (stereo not shown) [PC11303, 4-[(3-Ethyl-2-oxo-2,3-dihydro-1,3-benzoselenazol-6-yl)(1H-1,2,4-triazol-1-yl)methyl]benzonitrile]
other
  melting point: 95 to 98 °C
[1]; [3]
  IC50: 3.99 nM
[2]
  inhibition in vivo at 0.001 mg/kg: 38%
  inhibition in vivo at 0.01 mg/kg: 60%
  inhibition in vivo at 0.1 mg/kg: 71%

## Cn1c(=O)[se]c2cc(C(c3ccc(C#N)cc3)n3cncn3)ccc21 (stereo not shown) [PCH300, 4-[(3-Methyl-2-oxo-2,3-dihydro-1,3-benzoselenazol-6-yl)(1H-1,2,4-triazol-1-yl)methyl]benzonitrile]
other
  melting point: 154 to 158 °C
[1]; [3]
  IC50: 4.64 nM
[2]
  inhibition in vivo at 0.001 mg/kg: 49%
  inhibition in vivo at 0.01 mg/kg: 86%
  inhibition in vivo at 0.1 mg/kg: 91%

## N#Cc1ccc(C(c2ccc3[nH]c(=O)[se]c3c2)n2cncn2)cc1 (stereo not shown) [PCH302, 4-[(2-oxo-2,3-dihydro-1,3-benzoselenazol-6-yl)(1H-1,2,4-triazol-1-yl)methyl]benzonitrile]
other
  melting point: 223 to 226 °C
[1]; [3]
  IC50: 6.53 nM
[2]
  inhibition in vivo at 0.001 mg/kg: 45%
  inhibition in vivo at 0.01 mg/kg: 20%
  inhibition in vivo at 0.1 mg/kg: 63%

## CCn1c(=O)[se]c2cc(C(c3ccc([N+](=O)[O-])cc3)n3cncn3)ccc21 (stereo not shown) [PCH305, 3-Ethyl-6-[(4-nitrophenyl)(1H-1,2,4-triazol-1-yl)methyl]-1,3-benzoselenazol-2(3H)-one]
other
  melting point: 79 to 82 °C
[1]; [3]
  IC50: 3.7 nM

## CCn1c(=O)sc2ccc(C(c3ccc(C#N)cc3)n3cncn3)cc21 (stereo not shown) [PCH246, 4-[(3-Ethyl-2-oxo-2,3-dihydro-1,3-benzothiazol-5-yl)(1H-1,2,4-triazol-1-yl)methyl]benzonitrile]
other
  melting point: 125 to 127 °C
[1]; [3]
  IC50: 5.51 nM
[2]
  inhibition in vivo at 0.001 mg/kg: 22%
  inhibition in vivo at 0.01 mg/kg: 45%
  inhibition in vivo at 0.1 mg/kg: 91%

## N#Cc1cccc(C(c2ccc3[nH]c(=O)oc3c2)n2ccnc2)c1 (stereo not shown) [PCH119]
Aromatase (e)
  IC50: 27.7 nM
[1]; [4]
  IC50: 25.1 nM

## O=c1[nH]c2ccc(C(c3ccccc3)n3ccnc3)cc2s1 (stereo not shown) [PCH100, 6-[1H-Imidazol-1-yl(phenyl)methyl]-1,3-benzothiazol-2(3H)-one]
Aromatase (e)
  IC50: 34 nM
[1]; [4]
  IC50: 33.7 nM

## Cn1c(=O)oc2ccc(C(c3ccccc3)n3ccnc3)cc21 (stereo not shown) [PCH31, 3-Methyl-5-[1H-imidazol-1-yl-(phenyl)methyl]-1,3-benzoxazol-2(3H)-one]
Aromatase (e)
  IC50: 50.1 nM
[1]; [4]
  IC50: 46.6 nM

## Cn1c(=O)sc2ccc(C(c3ccc(C#N)cc3)n3cncn3)cc21 (stereo not shown) [PCH163, 4-[(3-Methyl-2-oxo-2,3-dihydro-1,3-benzothiazol-5-yl)(1H-1,2,4-triazol-1-yl)methyl]benzonitrile]
other
  melting point: 122 to 125 °C
[1]; [3]
  IC50: 5.78 nM
[2]
  inhibition in vivo at 0.001 mg/kg: 57%
  inhibition in vivo at 0.01 mg/kg: 83%
  inhibition in vivo at 0.1 mg/kg: 95%

## O=c1[nH]c2cc(C(c3ccccc3)n3ccnc3)ccc2o1 (stereo not shown) [PCH124, 5-[1H-Imidazol-1-yl(phenyl)methyl]-1,3-benzoxazol-2(3H)-one]
Aromatase (e)
  IC50: 14.1 nM
[1]; [4]
  IC50: 14.9 nM
[2]
  inhibition in vivo at 0.01 mg/kg: 34%
  inhibition in vivo at 0.1 mg/kg: 71%
  inhibition in vivo at 1 mg/kg: 92%

## Cn1c(=O)oc2cc(C(c3cccc(C#N)c3)n3ccnc3)ccc21 (stereo not shown) [PC122]
Aromatase (e)
  IC50: 23.2 nM
[1]; [4]
  IC50: 18.6 nM
[2]
  inhibition in vivo at 0.01 mg/kg: 39%
  inhibition in vivo at 0.1 mg/kg: 58%
  inhibition in vivo at 1 mg/kg: 92%

## Cn1c(=O)oc2cc(C(c3ccc(C#N)cc3)n3ccnc3)ccc21 (stereo not shown) [PCH27]
Aromatase (e)
  IC50: 72 nM
[1]; [4]
  IC50: 4.62 nM

## N#Cc1ccc(C(c2ccc3[nH]c(=O)oc3c2)n2ccnc2)cc1 (stereo not shown) [PCH113, 6-[(4-Cyanophenyl)(1H-imidazol-1-yl)methyl]-1,3-benzoxazol-2(3H)-one]
Aromatase (e)
  IC50: 14.6 nM
[1]; [4]
  IC50: 13.2 nM
[2]
  inhibition in vivo at 0.01 mg/kg: 19%
  inhibition in vivo at 0.1 mg/kg: 50%
  inhibition in vivo at 1 mg/kg: 94%
